Experimental data published in patent US20170105981A1, “METHODS FOR STABILIZING HYPOXIA INDUCIBLE FACTOR-2 ALPHA AS A METHOD FOR TREATING CANCER” (The Ohio State Innovation Foundation, priority 2011, published 2017).

How the values were obtained:
[1] = tested on: VEGF; assay: VEGF production by human peripheral blood monocytes (ELISA, real-time PCR); type: cell-based; conditions: monocytes with GM-CSF and compound vs GM-CSF alone; p=0.556; FIG. 11C
Method: Human peripheral blood mononuclear cells (PBMCs) were isolated from fresh peripheral blood leukocyte source packs (American Red Cross, Columbus Ohio) by density gradient centrifugation over Lymphocyte Separation Medium (Cellgro). Monocytes were purified from total PBMCs by layering over FBS. Monocytes were cultured in endotoxin-free RPMI-1640 supplemented with 1% fetal bovine serum (FBS), 0.1% human serum albumin (HSA), and 10 μg/mL of the endotoxin inhibitor polymyxin B. In some experiments, freshly isolated monocytes were differentiated into macrophages by three-day culture in media containing 10% FBS, 1% PSA (penicillin G sodium, streptomycin sulfate, and amphotericin B), and 20 ng/mL M-CSF. Macrophages were serum-starved for 2 hours prior to stimulation. Monocytes or monocyte-derived macrophages were treated for 24 hours with 10 ng/mL GM-CSF, 10 μM disclosed HIF-2α stabilizer, or an equivalent volume of the vehicle controls (PBS or DMSO, respectively). Cell-free culture supematants were harvested and analyzed for VEGF or sVEGFR-1 by ELISA (R&D Systems).
Human monocytes were left untreated or were stimulated with 100 ng/mL GM-CSF at normoxia or at 0.5% O2. At various time-points, cells were harvested in Trizol reagent (Invitrogen) and RNA was extracted in chloroform and then purified using the RNeasy Minikit (Qiagen). In murine studies, organs harvested at the time of euthanasia were flash-frozen in liquid nitrogen, pulverized in liquid nitrogen, and then dissolved in Trizol. cDNA was generated from 1 μg of RNA using the Superscript First Strand Synthesis System (Invitrogen) and used for real-time PCR using previously described primers and SYBR Green PCR Master Mix (Applied Biosciences), according to the manufacturer's instructions. Data were analyzed according to the comparative threshold method and normalized against the β-actin internal control transcript. Results are semi-quantitative and represent the fold difference in transcript levels in a particular sample as compared with levels in untreated cells from the same donor. […]

[2] = tested on: endothelial cell marker CD31; assay: Tumor vascularity by CD31 immunohistochemistry in melanoma-bearing mice; type: in vivo; conditions: mice treated with the control antibody; p=0.022; FIG. 14B
[3] = tested on: phosphoglycerate kinase (PGK) mRNA; assay: PGK mRNA expression (qPCR) in wild type murine embryonic fibroblasts; type: cell-based; conditions: hypoxic conditions (1% O2), 1, 10 and 100 μM, vs. hypoxia control, FIG. 2A
Method: (§1) Total RNA was isolated from tissues and cells by using TRIzol™ Reagent (Invitrogen) and the RNeasy kit (Qiagen), respectively. 1 μg RNA was used for reverse transcription using SuperScript II First-Strand Synthersis System (Invitrogen). cDNA's were amplified in a SYR Green or TaqMan Universal Master Mix (Applied Biosystems). Quantitative PCR (qPCR) was performed on ABI Prism 7700 sequence detection system. PCR conditions are: 10 min at 95° C., 40 cycles of 15 seconds at 95° C. and 1 minute at 60° C. The relative amount of mRNA was calculated after normalization to β-actin.
(§2) Cells were cultured in DMEM (#11965-092, Invitrogen) supplemented with 10% fetal bovine serum (Invitrogen), 100 U/mL penicillin and […] streptomycin. For glucose deprivation, DMEM without glucose (#11966-025, Invitrogen) was used.
(§3) Mouse embryonic fibroblasts (MEFs) were isolated from E12.5 embryos and immortalized by stable transfection with SV40 large T antigen.

[4] = tested on: A375 human melanoma cells; assay: A375 human melanoma tumors in SCID mice; type: in vivo; conditions: at the time of sacrifice; stabilizer 17 mg/kg, docetaxel 1 mg/kg, IP 3 times per week
Method: 6-8-week-old C57BL/6 mice or SCID mice were injected with 1×10^5 B16F10 murine melanoma cells or 1×10^6 A375 human melanoma cells, respectively, subcutaneously on the left flank. […] Tumor diameters were measured 3 times per week with calipers, and tumor volumes will be calculated as follows: Tumor volume=0.5×[(large diameter)×(small diameter)^2].
In the study, immunocompromised SCID mice were inoculated with A375 human melanoma tumors subcutaneously. Starting when the tumors became palpable (7 days after injection), mice were treated with either the cytotoxic chemotherapy docetaxel or with the disclosed HIF-2α stabilizer. The disclosed HIF-2α stabilizer was given at a dose of 17 mg/kg, and the docetaxel was given at 1 mg/kg. Both drugs were given IP 3 times per week. […] At the time of sacrifice, the tumors in the mice that received only the disclosed HIF-2α stabilizer were approximately 78% of the size of the control tumors, the tumors of the mice that received only chemotherapy were approximately 50% of the size of the control tumors, and the tumors of the mice that received both drugs were approximately 16% of the size of the control tumors.

[5] = tested on: HIF-1α; assay: Immunoblot for HIF-1α in murine bone marrow-derived macrophages; type: cell-based; conditions: murine bone marrow-derived macrophages treated 18 hours; p=0.105; FIG. 11A
Method: To generate bone marrow-derived macrophages (BDMs), femoral bone marrow was isolated and progenitor cells were plated in RPMI-1640 supplemented with 10% FBS, 1% PSA, 10 μg/mL of polymyxin B, and 20 ng/mL of recombinant murine M-CSF. Cells were cultured for 5 days with the addition of fresh M-CSF every other day. Differentiated BDM were serum-starved for 2 hours and then treated with 100 ng/mL of murine GM-CSF and/or 25 μM the disclosed HIF-2α stabilizer in RPMI-1640 containing 1% FBS and 10 μg/mL polymixin B. Culture supernatants were collected after 72 hours and assayed for VEGF and sVEGFR-1 content by ELISA (R&D Systems).
In order to confirm the selective upregulation of HIF-2α by the disclosed HIF-2α stabilizer, murine bone marrow-derived macrophages were treated with the disclosed HIF-2α stabilizer for 18 hours, and cells were then lysed and immunoblotted for HIF-1α and HIF-2α.

[6] = tested on: tumor growth in HIF-2αflox/flox/LysMcre and LysMcre mice; assay: Tumor growth in mice with myeloid-specific deletion of HIF-2α vs LysMcre control mice; type: in vivo; conditions: FIG. 15
Excerpt: HIF-2α^flox/flox mice (originally developed by Dr. Celeste Simon, University of Pennsylvania) and LysMcre recombinase mice (originally developed by Irmgard Foerster, University of Duesseldorf) (both purchased from The Jackson Laboratory, Bar Harbor, Me.) were crossed to generate mice homozygous for both LysMcre and the floxed HIF-2α allele. LysMcre recombinase mice, which express no floxed alleles, were used as controls. Deletion of HIF-2α in HIF-2α^flox/flox/LysMcre macrophages, but not the LysMcre control macrophages, was confirmed at the transcript level by real-time PCR.
The disclosed HIF-2α stabilizer is not targeted specifically to macrophages, and will stabilize HIF-2α in all tissues, not only the tumor-associated macrophages. In order to determine the role of macrophages in the anti-tumor response to the disclosed HIF-2α stabilizer, mice with a myeloid-specific deletion of HIF-2α (HIF-2α^flox/flox/LysMcre mice) were utilized.

[7] = tested on: VEGF mRNA; assay: VEGF mRNA expression (qPCR) in wild type murine embryonic fibroblasts; type: cell-based; conditions: hypoxic conditions (1% O2), 1, 10 and 100 μM, vs. hypoxia control, FIG. 1A
Method: as §1, §2, §3

`O=C(O)CNC(=O)c1ncc(-c2cccc(F)c2)cc1O` [disclosed HIF-2α stabilizer, {[5-(3-Fluorophenyl)-3-hydroxypyridine-2-carbonyl]amino} acetic acid] was tested, and the VEGF transcript levels [1] was “no difference”, the “tumor vascularity (CD31)” value [2] was “decreased tumor vascularity” and the “PGK mRNA (relative amount)” value [3] was “dramatic reduction”. The “tumor size as % of the size of the control tumors” value [4] was “approximately 78%”, the HIF-1α protein [5] was “no corresponding increase” and the tumor growth ([6]; LysMcre control mice) was “inhibited tumor growth”. The tumor growth ([6]; mice with HIF-2α-deficient macrophages, magnitude much less than in control mice) was “reduced tumor growth” and the “VEGF mRNA (relative amount)” value [7] was “dramatic reduction”.
